In patent US8748461B2, “Metalloenzyme inhibitor compounds” (Viamet Pharmaceuticals, Inc., priority 2011, dated 2014):
Values after ≈ are worked out from the molar mass of the structure shown.

Experiments:
[1] = system: Septoria tritici (ATCC 26517); assay: Minimum Inhibitory Concentration (MIC) vs. Septoria tritici; assay type: cell-based; conditions: Zymoseptoria tritici, ATCC26517, 168 h; 50% reduction in growth of S. tritici; 22° C., seven days; read-out: Septoria Rating (MIC)
Protocol: C. Minimum Inhibitory Concentration (MIC) vs. Septoria tritici Compounds were assessed for their ability to inhibit the growth of a common strain of the fungal plant pathogen Septoria tritici (ATCC 26517) using a procedure based on a Clinical and Laboratory Standards Institute (CLSI) microdilution assay protocol for filamentous fungi. Stock solutions of the test compounds and standards were prepared in DMSO at 6400 μg/mL. Each stock solution was used to prepare a 2-fold dilution series ranging from 16 to 0.016 μg/mL (total of 11 compound concentrations) in RPMI-1640 (Roswell Park Memorial Institute) medium containing 3-(N-morpholino)propanesulfonic acid (MOPS) buffer and 2% DMSO. A 100 μL aliquot of the dilutions was added to columns 1 (16 μg/mL compound) through 11 (0.016 μg/mL compound) of a 96-well microtiter plate. This format was replicated in a second row of the microtiter plate. Thus, each microtiter plate could include 11 concentrations of four test or control compounds replicated twice. A 100 μL aliquot of RPMI-1640/MOPS/2% DMSO medium was added to column 12 (no compound control) of the microtiter plate. A fresh culture of S. tritici was used to prepare a solution of approximately 5×10^4 colony-forming units per milliliter (cfu/mL) in RPMI/MOPS medium without DMSO. A 100 μL aliquot of this solution was added to all 96 wells in the microtiter plate. […] The assay plates were incubated at 22° C. for seven days in the dark without shaking. […] In each case of Table 3, the Septoria rating scale is as follows: […]

[2] = system: Puccinia recondita tritici = Puccinia triticina; assay: Fungicidal activity vs. leaf rust on wheat plants; assay type: in vivo; conditions: 50 ppm spray on wheat (Yuma), inoculated the following day, evaluated 7-9 days later; read-out: Puccinia Rating (% Disease Control @ 50 ppm)
Excerpt: D. Evaluation of Fungicidal Activity Vs. Leaf Rust (Causal Agent Puccinia recondita Tritici=Puccinia triticina; Bayer code PUCCRT). […] Each pot contained 3-8 seedlings. These plants were sprayed until wet with the formulated test compounds. The compounds were formulated at 50 ppm in 10 vol. % acetone plus 90 vol. % Triton X water (deionized water 99.99 wt %+0.01 wt % Triton X100), giving a “formulated test compound.” Formulated test compounds were applied to plants using a turn table sprayer fitted with two opposing air atomization nozzles which delivered approximately 1500 L/ha of spray volume. On the following day, the leaves were inoculated with an aqueous spore suspension of Puccinia recondita tritici and the plants were kept in high humidity overnight to permit spores to germinate and infect the leaf. The plants were then transferred to a greenhouse until disease developed on untreated control plants. Disease severity was evaluated 7-9 days later, depending on the speed of disease development. In each case of Table 3, the Puccinia rating scale is as follows: […]

SMILES | MIC [1] [µg/mL] | pest or weed control at 50 ppm [2] [%]
OC(Cn1cnnn1)(c1ccc(F)cc1F)C(F)(F)c1ccc(Oc2ccc(/C=N/OCc3ccccc3)cn2)cn1 (stereo not drawn) [Compound 103, (E)-6-((6-(2-(2,4-difluorophenyl)-1,1-difluoro-2-hydroxy-3-(1H-tetrazol-1-yl)propyl)pyridin-3-yl)oxy)nicotinaldehyde O-benzyl oxime] | 0.5 to 1.5 (≈ 0.863 to 2.59 µM) | 60 to 79
N#Cc1ncc(Oc2ccc(C(F)(F)C(O)(Cn3cnnn3)c3ccc(F)cc3F)nc2)cn1 (stereo not drawn) [Compound 100, 5-((6-(2-(2,4-difluorophenyl)-1,1-difluoro-2-hydroxy-3-(1H-tetrazol-1-yl)propyl)pyridin-3-yl)oxy)pyrimidine-2-carbonitrile] | 0.5 to 1.5 (≈ 1.06 to 3.18 µM) | 60 to 79
OC(Cn1cnnn1)(c1ccc(F)cc1F)C(F)(F)c1ccc(OCc2cccs2)cn1 (stereo not drawn) [Compound 49, 2-(2,4-Difluorophenyl)-1,1-difluoro-3-(1H-tetrazol-1-yl)-1-(5-(thiophen-2-ylmethoxy)pyridin-2-yl)propan-2-ol] | ≤ 0.5 | 80 to 100
OC(Cn1cnnn1)(c1ccc(F)cc1F)C(F)(F)c1ccc(OCC(F)(F)F)cn1 (stereo not drawn) [Compound 12, 2-(2,4-Difluorophenyl)-1,1-difluoro-3-(1H-tetrazol-1-yl)-1-(5-(2,2,2-trifluoroethoxy)pyridin-2-yl)propan-2-ol] | ≤ 0.5 | 80 to 100
OC(Cn1cnnn1)(c1ccc(F)cc1F)C(F)(F)c1ccc(Oc2ccc(F)cc2)cn1 (stereo not drawn) [Compound 6, 2-(2,4-Difluorophenyl)-1,1-difluoro-1-(5-(4-fluorophenoxy)pyridin-2-yl)-3-(1H-tetrazol-1-yl)propan-2-ol] | ≤ 0.5 | 80 to 100
COc1ccc(C(F)(F)C(O)(Cn2cnnn2)c2ccc(F)cc2F)nc1 (stereo not drawn) [Compound 8, 2-(2,4-Difluorophenyl)-1,1-difluoro-1-(5-methoxypyridin-2-yl)-3-(1H-tetrazol-1-yl)propan-2-ol] | 0.5 to 1.5 (≈ 1.3 to 3.91 µM) | 80 to 100
OC(Cn1cnnn1)(c1ccc(F)cc1F)C(F)(F)c1ccc(Oc2ccc(OC(F)(F)F)cc2)cn1 (stereo not drawn) [Compound 76, 2-(2,4-Difluorophenyl)-1,1-difluoro-3-(1H-tetrazol-1-yl)-1-(5-(4-(trifluoromethoxy)phenoxy)pyridin-2-yl)propan-2-ol] | ≤ 0.5 | 80 to 100
N#Cc1ccc(C(F)(F)COc2ccc(C(F)(F)C(O)(Cn3cnnn3)c3ccc(F)cc3F)nc2)cc1 (stereo not drawn) [Compound 121, 4-(2-((6-(2-(2,4-difluorophenyl)-1,1-difluoro-2-hydroxy-3-(1H-tetrazol-1-yl)propyl)pyridin-3-yl)oxy)-1,1-difluoroethyl)benzonitrile] | ≤ 0.5 | 80 to 100
OC(Cn1cnnn1)(c1ccc(F)cc1F)C(F)(F)c1ccc(OCc2ccc(Cl)nc2)cn1 (stereo not drawn) [Compound 116, 1-(5-((6-chloropyridin-3-yl)methoxy)pyridin-2-yl)-2-(2,4-difluorophenyl)-1,1-difluoro-3-(1H-tetrazol-1-yl)propan-2-ol] | ≤ 0.5 | 80 to 100
CO/N=C/c1ccc(Oc2ccc(C(F)(F)C(O)(Cn3cnnn3)c3ccc(F)cc3F)nc2)nc1 (stereo not drawn) [Compound 102, (E)-6-((6-(2-(2,4-difluorophenyl)-1,1-difluoro-2-hydroxy-3-(1H-tetrazol-1-yl)propyl)pyridin-3-yl)oxy)nicotinaldehyde O-methyl oxime] | ≤ 0.5 | 80 to 100
N#Cc1ccc(COc2ccc(C(F)(F)C(O)(Cn3cnnn3)c3ccc(F)cc3F)nc2)cc1 (stereo not drawn) [Compound 9, 4-(((6-(2-(2,4-Difluorophenyl)-1,1-difluoro-2-hydroxy-3-(1H-tetrazol-1-yl)propyl)pyridin-3-yl)oxy)methyl)benzonitrile] | ≤ 0.5 | 80 to 100

Now from value to compound, other results behind:

MIC [1] [µg/mL] | SMILES | pest or weed control at 50 ppm [2] [%]
≤ 0.5 | N#Cc1ccc(COc2ccc(C(F)(F)C(O)(Cn3cnnn3)c3ccc(F)cc3F)nc2)s1 (stereo not drawn) [Compound 73, 5-(((6-(2-(2,4-Difluorophenyl)-1,1-difluoro-2-hydroxy-3-(1H-tetrazol-1-yl)propyl)pyridin-3-yl)oxy)methyl)thiophene-2-carbonitrile] | 80 to 100
≤ 0.5 | N#Cc1ccc(COc2ccc(C(F)(F)C(O)(Cn3cnnn3)c3ccc(F)cc3F)nc2)nc1 (stereo not drawn) [Compound 50, 6-(((6-(2-(2,4-Difluorophenyl)-1,1-difluoro-2-hydroxy-3-(1H-tetrazol-1-yl)propyl)pyridin-3-yl)oxy)methyl)nicotinonitrile] | 80 to 100
≤ 0.5 | OC(Cn1cnnn1)(c1ccc(F)cc1F)C(F)(F)c1ccc(Oc2ccccc2)cn1 (stereo not drawn) [Compound 11, 2-(2,4-Difluorophenyl)-1,1-difluoro-1-(5-phenoxypyridin-2-yl)-3-(1H-tetrazol-1-yl)propan-2-ol] | 80 to 100
≤ 0.5 | OC(Cn1cnnn1)(c1ccc(F)cc1F)C(F)(F)c1ccc(Oc2ncc(Cl)cn2)cn1 (stereo not drawn) [Compound 98, 1-(5-((5-chloropyrimidin-2-yl)oxy)pyridin-2-yl)-2-(2,4-difluorophenyl)-1,1-difluoro-3-(1H-tetrazol-1-yl)propan-2-ol] | 80 to 100
≤ 0.5 | OC(Cn1cncn1)(c1ccc(F)cc1F)C(F)(F)c1ccc(OCc2cccc(F)c2F)cn1 (stereo not drawn) [Compound 45, 1-(5-((2,3-Difluorobenzyl)oxy)pyridin-2-yl)-2-(2,4-difluorophenyl)-1,1-difluoro-3-(1H-1,2,4-triazol-1-yl)propan-2-ol] | 80 to 100
≤ 0.5 | OC(Cn1cnnn1)(c1ccc(F)cc1F)C(F)(F)c1ccc(Oc2cccc(F)c2)cn1 (stereo not drawn) [Compound 77, 2-(2,4-Difluorophenyl)-1,1-difluoro-1-(5-(3-fluorophenoxy)pyridin-2-yl)-3-(1H-tetrazol-1-yl)propan-2-ol] | 60 to 79
≤ 0.5 | N#Cc1ccc(COc2ccc(C(F)(F)C(O)(Cn3cnnn3)c3ccc(Cl)cc3F)nc2)nc1 (stereo not drawn) [Compound 61, 6-(((6-(2-(4-Chloro-2-fluorophenyl)-1,1-difluoro-2-hydroxy-3-(1H-tetrazol-1-yl)propyl)pyridin-3-yl)oxy)methyl)nicotinonitrile] | 80 to 100
≤ 0.5 | OC(Cn1cnnn1)(c1ccc(F)cc1F)C(F)(F)c1ccc(OCc2cccc(F)c2F)cn1 (stereo not drawn) [Compound 23, 1-(5-((2,3-Difluorobenzyl)oxy)pyridin-2-yl)-2-(2,4-difluorophenyl)-1,1-difluoro-3-(1H-tetrazol-1-yl)propan-2-ol] | 80 to 100
≤ 0.5 | OC(Cn1cnnn1)(c1ccc(F)cc1F)C(F)(F)c1ccc(OCC(F)(F)c2ccccc2)cn1 (stereo not drawn) [Compound 119, 1-(5-(2,2-difluoro-2-phenylethoxy)pyridin-2-yl)-2-(2,4-difluorophenyl)-1,1-difluoro-3-(1H-tetrazol-1-yl)propan-2-ol] | 80 to 100
≤ 0.5 | COc1cccc(COc2ccc(C(F)(F)C(O)(Cn3cnnn3)c3ccc(F)cc3F)nc2)c1 (stereo not drawn) [Compound 34, 2-(2,4-Difluorophenyl)-1,1-difluoro-1-(5-((3-methoxybenzyl)oxy)pyridin-2-yl)-3-(1H-tetrazol-1-yl)propan-2-ol] | 80 to 100
≤ 0.5 | N#Cc1ccc(F)c(COc2ccc(C(F)(F)C(O)(Cn3cnnn3)c3ccc(F)cc3F)nc2)c1 (stereo not drawn) [Compound 59, 3-(((6-(2-(2,4-Difluorophenyl)-1,1-difluoro-2-hydroxy-3-(1H-tetrazol-1-yl)propyl)pyridin-3-yl)oxy)methyl)-4-fluorobenzonitrile] | 80 to 100
≤ 0.5 | COc1ccc(COc2ccc(C(F)(F)C(O)(Cn3cnnn3)c3ccc(F)cc3F)nc2)cc1 (stereo not drawn) [Compound 41, 2-(2,4-Difluorophenyl)-1,1-difluoro-1-(5-((4-methoxybenzyl)oxy)pyridin-2-yl)-3-(1H-tetrazol-1-yl)propan-2-ol] | 80 to 100
≤ 0.5 | OC(Cn1cnnn1)(c1ccc(F)cc1F)C(F)(F)c1ccc(OCc2ccccc2F)cn1 (stereo not drawn) [Compound 46, 2-(2,4-Difluorophenyl)-1,1-difluoro-1-(5-((2-fluorobenzyl)oxy)pyridin-2-yl)-3-(1H-tetrazol-1-yl)propan-2-ol] | 80 to 100
